Results on 26 molecules are retold here after patent publication US9035085B2, “Aryl ketone compounds and compositions for delivering active agents” (EMISPHERE TECHNOLOGIES, INC., priority 2004, dated 2015).

The experiment can be described thus: Insulin oral delivery in rats (blood glucose). The following applies: delivery agent 200 mg/kg with insulin 0.50 mg/kg, 1 ml/kg. It counts as in vivo, Male Sprague-Dawley rats. An excerpt: The typical dosing and sampling protocols were as follows.
Turning to `O=C(O)CCCC(=O)c1cccc(Oc2ccccc2)c1` [Compound 41], the “% Change in Glucose (from control)” value is −16.5%.
Consider `O=C(O)CCCCCC(=O)c1cccc(Oc2ccccc2)c1` [Compound 42], for which the “% Change in Glucose (from control)” value is reported as −13.8%.
With `O=C(O)CCCC(=O)c1ccc(Oc2ccccc2)cc1` [Compound 40] the figure was −3.9%.
`O=C(O)CCCCCCC(=O)c1ccccc1` [Compound 25]: the “% Change in Glucose (from control)” value is −20.8%.
With `COc1c(C)cc(C(=O)CCCCC(=O)O)cc1C` [Compound 10] the figure was −13.5%.
With `COc1ccc(C(=O)CCCCC(=O)O)cc1` [Compound 14], the “% Change in Glucose (from control)” value is on record as −2.0%.
The same measure for `O=C(O)CCC(=O)c1ccccc1` [Compound 1, 4-Oxo-4-phenyl-butyric acid]: −30.7%; for `O=C(O)CCCCC(=O)c1cc(Cl)ccc1Cl` [Compound 21]: −40.8%; for `Cc1ccc(C)c(C(=O)CCC(=O)O)c1` [Compound 19]: −28.3%.
The same measure for `Cc1ccc(C(=O)CCCCC(=O)O)cc1C` [Compound 16]: −25.1%; for `O=C(O)CCCC(=O)c1ccccc1` [Compound 8]: −1.3%; for `Cc1cc(C)cc(C(=O)CCCCCCC(=O)O)c1` [Compound 20]: −6.6%.
For `O=C(O)CCC(=O)c1ccc(F)cc1F` [Compound 30], the “% Change in Glucose (from control)” value is −10.5%.
With `COc1ccccc1C(=O)CCC(=O)O` [Compound 12] the figure was −2.3%; with `Cc1cc(C)cc(C(=O)CCCCC(=O)O)c1` [Compound 23], −7.5%.
The same measure for `O=C(O)CCC(=O)c1cc(Cl)ccc1Cl` [Compound 22]: −16.3%.
With `Cc1ccc(C(=O)CCC(=O)O)cc1` [Compound 38] the figure was −26.9%; with `Cc1ccc(C(=O)CCC(=O)O)cc1C` [Compound 17], −9.5%.
Take `O=C(O)CCCC(=O)c1ccc(Cl)cc1` [Compound 36]: the “% Change in Glucose (from control)” value is reported as −31.9%.
On to `O=C(O)CCCCC(=O)c1cc(F)cc(F)c1` [Compound 37], for which the “% Change in Glucose (from control)” value was −39.0%.
Regarding `CCc1ccc(C(=O)CCC(=O)O)cc1` [Compound 29], the “% Change in Glucose (from control)” value is −35.4%.
In the case of `COc1ccc(C(=O)CCC(=O)O)cc1` [Compound 5, 4-(4-Methoxy-phenyl)-4-oxo-butyric acid], the “% Change in Glucose (from control)” value is listed as −12.1%.
On to `CCCCCCOc1ccc(C(=O)CCC(=O)O)cc1` [Compound 34], for which the “% Change in Glucose (from control)” value is recorded as 9.4%.
`COc1ccc(C(=O)CCCC(=O)O)cc1` [Compound 6, 5-(4-Methoxy-phenyl)-5-oxo-pentanoic acid]: the “% Change in Glucose (from control)” value is listed as −18.3%.
`O=C(O)CCC(=O)c1cc(F)ccc1F` [Compound 35]: the “% Change in Glucose (from control)” value is recorded as −11.8%.
As for `O=C(O)CCCCCC(=O)c1ccccc1` [Compound 28], the “% Change in Glucose (from control)” value is −26.4%.
